Experimental data published in article PMC9826262, “Discovery of Benzo[d]imidazole‐6‐sulfonamides as Bromodomain and Extra‐Terminal Domain (BET) Inhibitors with Selectivity for the First Bromodomain” (Chemmedchem, 2022).
≈ marks a conversion by molar mass, not a printed value.

What was measured:
in vitro = conditions: PAMPA, pH 7.4
Protocol: Membrane permeability was estimated by the well‐validated parallel artificial membrane permeability assay (PAMPA) technique.[17, 26]
Parallel Artificial Membrane Permeability Assay (PAMPA). Donor solution (0.2 mM) was prepared by diluting 20 mM dimethyl sulfoxide (DMSO) compound stock solution using phosphate buffer (pH 7.4, 0.01 M). Filters were coated with 5 μL of a 1 % (w/v) dodecane solution of L‐α‐phosphatidylcholine. Donor solution (150 μL) was added to each well of the filter plate. To each well of the acceptor plate, 300 μL of solution (5 % DMSO in phosphate buffer) was added. […] The sandwich was incubated for 24 h at room temperature under gentle shaking. After the incubation time, the sandwich plates were separated and 250 μL of the acceptor plate was transferred to a UV quartz microtiter plate and measured by UV spectroscopy, using a Multiskan GO microplate spectrophotometer (Thermo Fisher Scientific) at 250–500 nm at a step of 5 nm. Reference solutions (250 μL) were prepared diluting the sample stock solutions to the same concentration as that with no membrane barrier.
In this equation, VR is the volume of the acceptor compartment (0.3 cm^3), VD is the donor volume (0.15 cm^3), A is the accessible filter area (0.24 cm^2), and t is the incubation time in seconds.

[1] = Nephelometric solubility determination; assay type: physicochemical; conditions: for solubility: aqueous buffer, kinetic from dmso stock, PBS with 1 % DMSO, tested at 50 and 100 μM, room temperature, read-out: Solubility (highest concentration where no precipitate was detected)
Protocol: Solubility determination. Solubility of the compounds was determined using Nepheloskan Ascent® (Labsystems). The experiments were performed at room temperature in 96‐well plates in a final volume of 300 μL. Each compound was tested in quadruplicate at the concentrations of 50 and 100 μM in PBS with 1 % DMSO. The measurements were performed at 4 different time points (T0, 30 min, 60 min, 90 min) from the preparation of the samples. Data obtained were compared to control (PBS with 1 % DMSO) and the ratio sample/control was determined for each compound. Compounds are considered soluble if the ratio is≤3.

[2] = CYPs and UGTs dual-activity microsomal stability; assay type: in vitro ADME; conditions: human liver microsomes; alamethicin, NADPH and UDPGA cofactors; 37 °C, 60 min
Protocol: In this study, the CYPs and UGTs “dual‐activity” microsomal stability assay was carried out to follow the loss of the test compounds over time under CYP‐ and UGT‐mediated metabolic pathways. In detail, the compounds were added to human liver microsomes in the presence of alamethicin, NADPH and UDPGA as cofactors.[24] Alamethicin, a pore‐forming peptide, was used to activate UGTs in human liver microsomes. Testosterone was used as positive control while the negative control was prepared by incubation of the compounds without cofactors up to 60 min. The negative control is essential to detect problems such as non‐specific protein binding or heat instability.
Instrumentation and chromatographic conditions. The metabolic stability of investigated compounds was monitored using a Nexera UHPLC system (Shimadzu, Kyoto, Japan) consisting of a CBM‐20A controller, two LC‐30AD pumps, an SPD‐M20A photo diode array detector, a CTO‐20AC column oven and, a SIL‐30AC autosampler. The chromatographic analyses were accomplished on a Kinetex® Evo C18 column, 150×2.1 mm×2.6 μm (Phenomenex®, Bologna, Italy) maintained at 40 °C. The optimal mobile phase consisted of 0.1 % HCOOH/H2O v/v (A) and 0.1 % HCOOH/ACN v/v (B) delivered at constant flow rate of 0.5 mL/min ^−1. Analysis was performed in gradient elution as follows: 0–8.00 min, 5–95 % B; 8.00–10.00 min, isocratic to 95 % B; then five minutes for column re‐equilibration. Data acquisition was set in the range 190–800 nm and chromatograms were monitored at 254 nm.
In vitro drug metabolism using human liver microsomes. 25 μL of 5 mg/mL human […] microsomes (Thermo Fisher Scientific, Bremen, Germany) were pre‐incubated with 0.625 μL of 100 μg/mL alamethicin. Then 2.5 μL of sample (5 mM) with 168 μL of 100 mM phosphate buffer (pH 7.4), 4 μL of 500 mM MgCl2 were added, the mixture was incubated at 37 °C for 5 min. Optimal UGT activity can be achieved by the addition of MgCl2 and alamethicin as pore forming antibiotic. These components allow for the efficient transfer of a glucuronide product and the cofactor uridine 5′‐diphospho‐α‐D‐glucuronic acid (UDPGA) within the microsomal matrix. The reaction has started by adding 50 μL of mix NADPH 20 mM and UDP‐GlcUA 20 mM as cofactors (1 : 1 v/v) and carried out 37 °C for 60 min in a Thermomixer comfort (Eppendorf, Hamburg, Germany). The reaction was stopped by the addition of 200 μL ice‐cold acetonitrile and then samples were centrifuged at 14,000 rpm at 25 °C for 5 min (Eppendorf® microcentrifuge 5424, Hamburg, Germany). The supernatants were collected and injected in UHPLC. The control at 0 min was obtained by addition of ice‐cold acetonitrile immediately after incubation with microsomes. […]

[3] = tested on: BD1 and BD2 of BET proteins (BRD2, BRD3, BRD4 and BRDT); test: Protein stability shift assay (ΔTm), BET bromodomains; assay type: binding; conditions: compound 10 μM; protein 2 μM
Protocol: (§1) The compounds were tested at 10 μM fixed dose and the pan‐BET inhibitor 1 was used as a reference compound.[22] The results obtained from this screening supported our design strategy.
(§2) Protein stability shift assay. Thermal melting experiments were carried out using an Mx3005p Real Time PCR machine (Stratagene). Proteins were buffered in 10 mM HEPES pH 7.5, 500 mM NaCl and assayed in a 96‐well plate at a final concentration of 2 μM in 20 μL volume. Compounds were added at a final concentration of 10 μM. SYPRO Orange (Molecular Probes) was added as a fluorescence probe at a dilution of 1 : 1000. Excitation and emission filters for the SYPRO‐Orange dye were set to 465 nm and 590 nm, respectively. The temperature was raised with a step of 3 °C per minute from 25 °C to 96 °C and fluorescence readings were taken at each interval. The temperature dependence of the fluorescence during the protein denaturation process was approximated by the equation yT=yF+yU-yF/1+e^ΔuGT/RT
(§3) where ΔuG(T) is the difference in unfolding free energy between the folded and unfolded state, R is the gas constant and yF and yU are the fluorescence intensity of the probe in the presence of completely folded and unfolded protein, respectively. The baselines of the denatured and native states were approximated by a linear fit. The observed temperature shifts, ΔTm obs, were recorded as the difference between the transition midpoints of sample and reference wells containing protein without ligand in the same plate and determined by non‐linear least squares fit.

[4] = tested on: non‐BET bromodomain‐containing proteins (CREBBP, PB1 and PCAF); test: Protein stability shift assay (ΔTm), non-BET bromodomains; assay type: binding; conditions: compound 10 μM; protein 2 μM
Protocol: as §1, §2, §3

BD1 of BRD4 = tested on: BD1 of BRD4; design: method as in earlier work; conditions: ref 19b; cited from earlier work
BD1 (BRD3 and BRD4) = conditions: cited from earlier work

SMILES: Cc1cc(/N=N/c2ccc(S(=O)(=O)Nc3ccccn3)cc2)c(N)cc1O [7 a, MS436, reference compound]
- Papp at 24 h, 0.2 mM (in vitro): 0.0103 ×10⁻⁶ cm/s
- Solubility at 100 μM ([1]; 100 μM, aqueous solution with 1 % DMSO): still soluble
- solubility [1]: 100 µM (≈ 38.3 µg/mL)
- CYPs and UGTs “dual‐activity” microsomal stability (percentage of the parent compound turnover) [2]: 7.8±0.5%

SMILES: Cc1cc(-c2nc3ccc(S(=O)(=O)Nc4ccc(C#N)cc4)cc3[nH]2)cc(C)c1O [9 b, N ‐(4‐cyanophenyl)‐2‐(4‐hydroxy‐3,5‐dimethylphenyl)‐1H‐benzo[d]imidazole‐6‐sulfonamide]
- Papp at 24 h, 0.2 mM (in vitro): 0.0909 ×10⁻⁶ cm/s
- solubility [1]: 50 µM (≈ 20.9 µg/mL)
- ΔTm screening against BET bromodomains [3]: increase in the melting temperature of all BET proteins
- CYPs and UGTs “dual‐activity” microsomal stability (percentage of the parent compound turnover) [2]: 16.3±0.5%

SMILES: Cc1cc(-c2nc3ccc(S(N)(=O)=O)cc3[nH]2)cc(C)c1O [9 c, 2‐(4‐hydroxy‐3,5‐dimethylphenyl)‐1H‐benzo[d]imidazole‐6‐sulfonamide]
- ΔTm screening against BET bromodomains [3]: definitely lower affinity than 9 a and 9 b

SMILES: CNS(=O)(=O)c1ccc2nc(-c3cc(C)c(O)c(C)c3)[nH]c2c1 [9 d, 2‐(4‐hydroxy‐3,5‐dimethylphenyl)‐N‐methyl‐1H‐benzo[d]imidazole‐6‐sulfonamide]
- ΔTm screening against BET bromodomains [3]: definitely lower affinity than 9 a and 9 b

SMILES: Cc1cc(-c2nc3ccc(S(=O)(=O)NCc4ccccn4)cc3[nH]2)cc(C)c1O [9 e, 2‐(4‐hydroxy‐3,5‐dimethylphenyl)‐N‐(pyridin‐2‐ylmethyl)‐1H‐benzo[d]imidazole‐6‐sulfonamide]
- ΔTm screening against BET bromodomains [3]: complete loss of activity

SMILES: Cc1cc(-c2nc3ccc(S(=O)(=O)NCc4cccnc4)cc3[nH]2)cc(C)c1O [9 f, 2‐(4‐hydroxy‐3,5‐dimethylphenyl)‐N‐(pyridin‐3‐ylmethyl)‐1H‐benzo[d]imidazole‐6‐sulfonamide]
- ΔTm screening against BET bromodomains [3]: complete loss of activity

SMILES: Cc1cc(-c2nc3ccc(S(=O)(=O)NC4CC4)cc3[nH]2)cc(C)c1O [9 g, N ‐cyclopropyl‐2‐(4‐hydroxy‐3,5‐dimethylphenyl)‐1H‐benzo[d]imidazole‐6‐sulfonamide]
- ΔTm screening against BET bromodomains [3]: partial loss of affinity toward BETs
- ΔTm screening, off-target binding (BD2 of BRDT and non-BET bromodomains) [4]: strong off‐target binding

SMILES: Cc1cc(-c2nc3ccc(S(=O)(=O)NC4CCCC4)cc3[nH]2)cc(C)c1O [9 h, N ‐cyclopentyl‐2‐(4‐hydroxy‐3,5‐dimethylphenyl)‐1H‐benzo[d]imidazole‐6‐sulfonamide]
- ΔTm screening against BET bromodomains [3]: affinity toward BETs similar to 9 a and 9 b
- ΔTm screening, off-target binding (BD2 of BRDT and non-BET bromodomains) [4]: strong binding to BD2 of BRDT and other non‐BET bromodomain‐containing proteins

SMILES: Cc1cc(-c2nc3ccc(S(=O)(=O)NC4CCCCC4)cc3[nH]2)cc(C)c1O [9 i, N ‐cyclohexyl‐2‐(4‐hydroxy‐3,5‐dimethylphenyl)‐1H‐benzo[d]imidazole‐6‐sulfonamide]
- ΔTm screening against BET bromodomains [3]: affinity toward BETs similar to 9 a and 9 b
- ΔTm screening, off-target binding (BD2 of BRDT and non-BET bromodomains) [4]: strong binding to BD2 of BRDT and other non‐BET bromodomain‐containing proteins

SMILES: Cc1cc(-c2nc3ccc(S(=O)(=O)Nc4ccccn4)cc3[nH]2)ccc1O [9 j, 2‐(4‐hydroxy‐3‐methylphenyl)‐N‐(pyridin‐2‐yl)‐1H‐benzo[d]imidazole‐6‐sulfonamide]
- ΔTm screening against BET bromodomains [3]: marked loss of activity

SMILES: Cc1cc(O)cc(C)c1-c1nc2ccc(S(=O)(=O)Nc3ccccn3)cc2[nH]1 [9 k, 2‐(4‐hydroxy‐2,6‐dimethylphenyl)‐N‐(pyridin‐2‐yl)‐1H‐benzo[d]imidazole‐6‐sulfonamide]
- ΔTm screening against BET bromodomains [3]: marked loss of activity

SMILES: O=S(=O)(Nc1ccccn1)c1ccc2nc(-c3ccc(O)cc3)[nH]c2c1 [9 l, 2‐(4‐hydroxyphenyl)‐N‐(pyridin‐2‐yl)‐1H‐benzo[d]imidazole‐6‐sulfonamide]
- ΔTm screening against BET bromodomains [3]: still active but significantly less selective

SMILES: O=S(=O)(Nc1ccccn1)c1ccc2nc(-c3cccc(O)c3)[nH]c2c1 [9 m, 2‐(3‐hydroxyphenyl)‐N‐(pyridin‐2‐yl)‐1H‐benzo[d]imidazole‐6‐sulfonamide]
- ΔTm screening against BET bromodomains [3]: almost completely inactive

SMILES: O=S(=O)(Nc1ccccn1)c1ccc2nc(-c3ccc(Cl)cc3)[nH]c2c1 [9 n, 2‐(4‐chlorophenyl)‐N‐(pyridin‐2‐yl)‐1H‐benzo[d]imidazole‐6‐sulfonamide]
- ΔTm screening against BET bromodomains [3]: almost completely inactive

SMILES: O=S(=O)(Nc1ccccn1)c1ccc2nc(-c3ccc(O)c(O)c3)[nH]c2c1 [9 o, 2‐(3,4‐dihydroxyphenyl)‐N‐(pyridin‐2‐yl)‐1H‐benzo[d]imidazole‐6‐sulfonamide]
- ΔTm screening against BET bromodomains [3]: not tolerated

SMILES: O=S(=O)(Nc1ccccn1)c1ccc2nc(-c3ccc(O)cc3O)[nH]c2c1 [9 p, 2‐(2,4‐dihydroxyphenyl)‐N‐(pyridin‐2‐yl)‐1H‐benzo[d]imidazole‐6‐sulfonamide]
- ΔTm screening against BET bromodomains [3]: active but non‐selective

SMILES: COCC(COC)n1c(-c2cc(C)c(=O)n(C)c2)nc2cc(N3CCOCC3)ccc21 [Compound 8, I‐BET469]
- Selectivity for BD1 over BD2 of BRD2, BRD3 and BRD4 (BD1 of BRD4): 20 fold
- pIC50 on BD1 of BRD4 (BD1 of BRD4): 7.9

SMILES: COc1ccccc1S(=O)(=O)Nc1ccc2c3c(cc(-n4cnc(C)c4)nc13)C(=O)N2C [LT052]
- IC50 (BD1 (BRD3 and BRD4); read-out: IC50 towards BD1): 87.7 nM
- Selectivity for BD1 over BD2 (BD1 (BRD3 and BRD4); tested against BRD3 and BRD4): over 100 fold

SMILES: CC(C)NCC(O)COc1cccc2ccccc12 (stereo not drawn) [propranolol]
- Papp at 24 h, 0.2 mM (in vitro): 1.91 ×10⁻⁶ cm/s
